Experiments:
[1] = test system: Cushing's syndrome secondary to ectopic ACTH secretion; experiment: Case-study: mifepristone in a patient with Cushing's syndrome secondary to ectopic ACTH secretion; format: in vivo, human; settings: person
Excerpt: A subject, first presented with clinical symptoms of Cushing's syndrome in August 2006, and they were diagnosed with Cushing's syndrome secondary to ectopic ACTH secretion in March 2007.

[2] = test system: Cushing's syndrome (ectopic ACTH secretion); settings: cited from earlier work
[3] = 200 mg three times a day, after 2 weeks of treatment

For CC#C[C@]1(O)CC[C@H]2[C@@H]3CCC4=CC(=O)CCC4=C3[C@@H](c3ccc(N(C)C)cc3)C[C@@]21C [mifepristone], the concomitant insulin treatment [1, 3] was “insulin was stopped”, the “dose of concomitant metformin” value [1, 3] was “decreased by two” and the “general clinical consequences of hypercortisolism” value [1, 3] was “rapidly improved”. For the same compound, the glycemia [1, 3] was “returned to normal”, the “dose of enalapril previously administered for hypertension” value ([1]; mifepristone 200 mg three times a day) was “decreased from 30 mg to 10 mg” and the “outcome of fractioned dosage” value ([2]; fractioned dosage, young child) was “successfully given”. For the same compound, the “efficacy in clinical trials” value ([2]; high-dose mifepristone once a day) was “some efficacy”.
